Results: patent US3968207A, “Method of controlling fleas and ticks on cats and dogs” (priority 1975, dated 1976)
Several values for one entry are separate records, joined by “and”; a condition that tells them apart may be missing. Identical values can stand only once. Like-named read-outs stand apart in the source and are kept apart here.

How the values were obtained:
Assay type in all cases: in vivo
[1] = system: Boophilus microplus larvae; assay: Control of acarina larvae in pipettes (simulated spray); settings: Rhipicephalus microplus, 48 hours, read-out: Activity (larval mortality)
Experimental: Boophilus is a one-host tick which uses only one host animal during its three parasitic life stages (larvae, nymph, adult). […] Twenty larvae are enclosed in a pipette sealed at one end with a gauze material, and the "solution" containing the test compound is then drawn through the pipette with a vacuum hose, simulating a spray system. The open end of the pipette is sealed with plastiline and the ticks held for 48 hours at room temperature and 80+% humidity. Activity is based on mortality. The test compound was 100%, 100% and 0% active at 0.01%, 0.001% and 0.0001% (w/w), respectively.

Ctenocephalides felis [2] = assay: Flea control on dogs given oral doses (gelatin capsules), Table III; parameters: key to Flea Control: 100% Control; PC: Partial Control; NC: No Control
Experimental: Five groups of two mongrel dogs each were dosed daily with 0, 0.78, 3.1, 12.5 or 50 mg. O,O,O',O'-tetramethyl O,O'-thiodi-p-phenylene phosphorothioate/kg. body weight in gelatin capsules for 10 days. Medication began three days after infestations with 100 adult Ctenocephalides felis. […] Purina High Protein Dog Meal was fed once daily for the duration of the experiment. Water was provided ad libitum. The following table summarizes the results of the test.

Amblyomma americanum = assay: Control of adult ticks on rabbits, Table II; settings: for mortality at 0.05 % / mortality at 0.2 % / mortality at 0.4 %: Amblyomma americanum, topical, 96 h, 4 days after treatment
Experimental: The midsection of each host rabbit is clipped, and a rubber capsule is cemented to the clipped portion of the skin. After a 24-hour drying period, the 10 ticks are placed in the capsule and allowed to attack the host for 72 hours. On the day of treatment, each capsule is sprayed with 2-3 cc. of the test compound, O,O,O',O'-tetramethyl O,O'-thiodi-p-phenylene phosphorothioate. Sufficient rabbits were used to test at concentrations of 0.05%, 0.20% and 0.40% (w/w), respectively.
Mortality was noted 4 days after treatment. On those rabbits where female ticks survived, five untreated male ticks were introduced and the ticks allowed to mate. Fully engorged females were then removed from the capsule and placed in petri dishes for oviposition. Effect of fecundity is then determined by comparing the percent of eggs laid and the percent of eggs which hatch in the treated versus the controls.

Ctenocephalides felis [3] = assay: 2% powder for control of flea infestations on dogs; settings: for Percent of Dogs with Control / Number of Dogs on Which Fleas were Controlled: 20 mg/kg 2% powder; for Average Dead in Treated / No. of Dead Fleas Recovered in 48 Hrs.: 20 mg/kg; for No. of Dead Fleas Recovered in 48 Hrs.: Trial 1, individual dogs
Experimental: An experiment was carried out to determine the activity of O,O,O',O'-tetramethyl O,O'-thiodi-p-phenylene phosphorothioate 2% powder for the control of Ctenocephalides felis infestations on dogs. A group of 40 dogs of mixed breeds were obtained from a licensed laboratory animal dealer and housed in individual cages. The 2% powder was formulated from a 25% dust concentrate containing […] O,O,O',O'-tetramethyl O,O'-thiodi-p-phenylene phosphorothioate, 24% celite 209 and 50% acidic kaolin. Talc was used to dilute the concentrate to 2% active ingredient. Each dog was infested with 100 1 day old adult C. felis 72 hours prior to treatment and reinfested on a weekly basis for 6 weeks beginning 7 days after treatment. Each dog was treated with 20 mg. actual drug per kg. body weight formulated as a 2% powder. Five or more dogs were treated with a blank powder and used as infested controls. Table XV summarizes average dead fleas in treated versus average dead fleas in control.

Ctenocephalides felis [4] = assay: Flea control on dogs fed medicated diet, Table IV; parameters: key: 100% Control; PC: Partial Control; NC: No Control
Experimental: Five groups of two mongrel dogs each were fed a daily dose of 0, 6.25, 25, 100 or 400 mg. O,O,O',O'-tetramethyl O,O'-thiodi-p-phenylene phosphorothioate/kg. body weight in Agway Big Red Dog Meal. Dogs eating less than 75% of the food were given a corrected dose by gelatin capsule to equal 100%. Medication began 1 day after infesting each dog with 100 adult Ctenocephalides felis and 2 days before infesting each dog with 10 Dermacentor variabiles and 10 Rhipicephalus sanguineus adults.

COP(=S)(OC)Oc1ccc(Sc2ccc(OP(=S)(OC)OC)cc2)cc1 [O,O,O',O'-tetramethyl O,O'-thiodi-p-phenylene phosphorothioate]
mortality at 0.0001 % ([1]; 0.0001% (w/w)): 0% | mortality at 0.001 % ([1]; 0.001% (w/w)): 100% | mortality at 0.01 % ([1]; 0.01% (w/w)): 100% | flea activity (Ctenocephalides felis [2]; oral 0.78 mg/kg): no flea activity was observed | Flea Control (Ctenocephalides felis [2]; oral 3.1 mg/kg daily, day 0): NC | Flea Control (Ctenocephalides felis [2]; oral 3.1 mg/kg daily, day 1): NC | Flea Control (Ctenocephalides felis [2]; oral 3.1 mg/kg daily, day 2): NC | Flea Control (Ctenocephalides felis [2]; oral 3.1 mg/kg daily, day 3): PC | Flea Control (Ctenocephalides felis [2]; oral 3.1 mg/kg daily, day 4): PC | Flea Control (Ctenocephalides felis [2]; oral 3.1 mg/kg daily, day 7): 100 (100% Control) | Flea Control (Ctenocephalides felis [2]; oral 3.1 mg/kg, both dogs, after 7 days): complete control | Flea Control (Ctenocephalides felis [2]; oral 12.5 mg/kg daily, day 0): NC | Flea Control (Ctenocephalides felis [2]; oral 12.5 mg/kg daily, day 2): PC | Flea Control (Ctenocephalides felis [2]; oral 12.5 mg/kg daily, day 3): PC | Flea Control (Ctenocephalides felis [2]; oral 12.5 mg/kg daily, day 4): PC | Flea Control (Ctenocephalides felis [2]; oral 12.5 mg/kg daily, day 7): 100 (100% Control) | Flea Control (Ctenocephalides felis [2]; oral 12.5 mg/kg, another dog, after 7 days): complete control | Flea Control (Ctenocephalides felis [2]; oral 12.5 mg/kg, one dog, after 24 hours): complete control | Flea Control (Ctenocephalides felis [2]; oral 50 mg/kg daily, day 0): NC | Flea Control (Ctenocephalides felis [2]; oral 50 mg/kg daily, day 1): 100 (100% Control) | Flea Control (Ctenocephalides felis [2]; oral 50 mg/kg, after 24 hours): complete flea control | Flea Control (Ctenocephalides felis [2]; oral .78 mg/kg daily, day 0): NC | Flea Control (Ctenocephalides felis [2]; oral .78 mg/kg daily, day 1): NC | Flea Control (Ctenocephalides felis [2]; oral .78 mg/kg daily, day 2): NC | Flea Control (Ctenocephalides felis [2]; oral .78 mg/kg daily, day 3): NC | Flea Control (Ctenocephalides felis [2]; oral .78 mg/kg daily, day 4): NC | Flea Control (Ctenocephalides felis [2]; oral .78 mg/kg daily, day 7): NC | Flea Control (Ctenocephalides felis [2]; oral .78 mg/kg daily, day 8): NC | Eggs Hatched (%) (Amblyomma americanum; 0.05% (w/w)): 90% | Eggs Hatched (%) (Amblyomma americanum; 0.20% (w/w)): 50% | Control of ticks (Amblyomma americanum; 0.20% and 0.40% (w/w)): effectively controls amblyomma ticks by killing the adult males and some females and rendering the female ova non-viable | Eggs Hatched (%) (Amblyomma americanum; 0.40% (w/w)): 1% | mortality at 0.05 % (Amblyomma americanum; 0.05% (w/w), read-out: Deaths (%) Females): 10% | mortality at 0.05 % (Amblyomma americanum; 0.05% (w/w), read-out: Deaths (%) Males): 70% | mortality at 0.2 % (Amblyomma americanum; 0.20% (w/w), read-out: Deaths (%) Females): 40% | mortality at 0.2 % (Amblyomma americanum; 0.20% (w/w), read-out: Deaths (%) Males): 100% | mortality at 0.4 % (Amblyomma americanum; 0.40% (w/w), read-out: Deaths (%) Females): 50% | mortality at 0.4 % (Amblyomma americanum; 0.40% (w/w), read-out: Deaths (%) Males): 100% | Percent of Dogs with Control (Ctenocephalides felis [3]; week 0): 100% | Percent of Dogs with Control (Ctenocephalides felis [3]; week 1): 100% | Percent of Dogs with Control (Ctenocephalides felis [3]; week 2): 100% | Percent of Dogs with Control (Ctenocephalides felis [3]; week 3): 100% | Percent of Dogs with Control (Ctenocephalides felis [3]; week 4): 92.5% | Percent of Dogs with Control (Ctenocephalides felis [3]; week 5): 80% | Percent of Dogs with Control (Ctenocephalides felis [3]; week 6): 45% | Number of Dogs on Which Fleas were Controlled (Ctenocephalides felis [3]; Combination of Test 1 & 2, week 0, of 40): 40 dogs | Number of Dogs on Which Fleas were Controlled (Ctenocephalides felis [3]; Combination of Test 1 & 2, week 1, of 40): 40 dogs | Number of Dogs on Which Fleas were Controlled (Ctenocephalides felis [3]; Combination of Test 1 & 2, week 2, of 40): 40 dogs | Number of Dogs on Which Fleas were Controlled (Ctenocephalides felis [3]; Combination of Test 1 & 2, week 3, of 40): 40 dogs | Number of Dogs on Which Fleas were Controlled (Ctenocephalides felis [3]; Combination of Test 1 & 2, week 4, of 40): 37 dogs | Number of Dogs on Which Fleas were Controlled (Ctenocephalides felis [3]; Combination of Test 1 & 2, week 5, of 40): 32 dogs | Number of Dogs on Which Fleas were Controlled (Ctenocephalides felis [3]; Combination of Test 1 & 2, week 6, of 40): 18 dogs | Number of Dogs on Which Fleas were Controlled (Ctenocephalides felis [3]; Experiment 1, week 0, of 20): 20 dogs | Number of Dogs on Which Fleas were Controlled (Ctenocephalides felis [3]; Experiment 1, week 1, of 20): 20 dogs | Number of Dogs on Which Fleas were Controlled (Ctenocephalides felis [3]; Experiment 1, week 2, of 20): 20 dogs | Number of Dogs on Which Fleas were Controlled (Ctenocephalides felis [3]; Experiment 1, week 3, of 20): 20 dogs | Number of Dogs on Which Fleas were Controlled (Ctenocephalides felis [3]; Experiment 1, week 4, of 20): 17 dogs | Number of Dogs on Which Fleas were Controlled (Ctenocephalides felis [3]; Experiment 1, week 5, of 20): 14 dogs | Number of Dogs on Which Fleas were Controlled (Ctenocephalides felis [3]; Experiment 1, week 6, of 20): 5 dogs | Number of Dogs on Which Fleas were Controlled (Ctenocephalides felis [3]; Experiment 2, week 0, of 20): 20 dogs | Number of Dogs on Which Fleas were Controlled (Ctenocephalides felis [3]; Experiment 2, week 1, of 20): 20 dogs | Number of Dogs on Which Fleas were Controlled (Ctenocephalides felis [3]; Experiment 2, week 2, of 20): 20 dogs | Number of Dogs on Which Fleas were Controlled (Ctenocephalides felis [3]; Experiment 2, week 3, of 20): 20 dogs | Number of Dogs on Which Fleas were Controlled (Ctenocephalides felis [3]; Experiment 2, week 4, of 20): 20 dogs | Number of Dogs on Which Fleas were Controlled (Ctenocephalides felis [3]; Experiment 2, week 5, of 20): 18 dogs | Number of Dogs on Which Fleas were Controlled (Ctenocephalides felis [3]; Experiment 2, week 6, of 20): 13 dogs | Average Dead in Treated (Ctenocephalides felis [3]; Test 1, week 0, control 6.2): 31.5 | Average Dead in Treated (Ctenocephalides felis [3]; Test 1, week 2, control 4.8): 40.4 | Average Dead in Treated (Ctenocephalides felis [3]; Test 1, week 6, control 3.2): 18.0 | Average Dead in Treated (Ctenocephalides felis [3]; Test 2, week 0, control 11.8): 43.5 | No. of Dead Fleas Recovered in 48 Hrs. (Ctenocephalides felis [3]; week 0): 18 and 44 and 41 and 34 and 26 and 38 and 28 and 50 and 21 and 22 and 40 and 24 and 25 | No. of Dead Fleas Recovered in 48 Hrs. (Ctenocephalides felis [3]; week 1): 30 and 44 and 53 and 43 and 14 and 37 and 26 and 74 and 49 and 57 and 33 and 31 and 38 | No. of Dead Fleas Recovered in 48 Hrs. (Ctenocephalides felis [3]; week 2): 54 and 39 and 55 and 40 and 27 and 64 and 31 and 44 and 38 and 32 and 43 and 50 and 42 | No. of Dead Fleas Recovered in 48 Hrs. (Ctenocephalides felis [3]; week 3): 37 and 36 and 47 and 43 and 35 and 42 and 33 and 63 and 44 and 60 and 29 | No. of Dead Fleas Recovered in 48 Hrs. (Ctenocephalides felis [3]; week 4): 43 and 46 and 48 and 25 and 8 and 21 and 35 and 61 and 24 and 34 and 6 and 26 and 42 | No. of Dead Fleas Recovered in 48 Hrs. (Ctenocephalides felis [3]; week 5): 35 and 63 and 48 and 16 and 5 and 21 and 11 and 36 and 14 and 46 and 39 | No. of Dead Fleas Recovered in 48 Hrs. (Ctenocephalides felis [3]; week 6): 5 and 49 and 63 and 10 and 3 and 1 and 23 and 19 and 6 and 7 and 27 and 35 | Flea Control (Ctenocephalides felis [4]; 6.25 mg/kg in feed, 1 dog, after 3 days): complete flea control | Flea Control (Ctenocephalides felis [4]; 6.25 mg/kg in feed, other dog, after 4 days): complete flea control | Flea Control (Ctenocephalides felis [4]; 400, 100 or 25 mg/kg in feed, all dogs, after 48 hours): Complete flea control | Flea Control (Ctenocephalides felis [4]; in feed 6.25 mg/kg daily, day 2): NC and PC | Flea Control (Ctenocephalides felis [4]; in feed 6.25 mg/kg daily, day 4): 100 (100% Control) | Flea Control (Ctenocephalides felis [4]; in feed 25 mg/kg daily, day 2): 100 (100% Control) | Flea Control (Ctenocephalides felis [4]; in feed 100 mg/kg daily, day 2): 100 (100% Control) | Flea Control (Ctenocephalides felis [4]; in feed 400 mg/kg daily, day 2): 100 (100% Control)
